# The kinase profiling compilation of Christmann-Franck et al. (2016)
# Experiments:
# Assay in all cases: KINOMEscan competition binding
# Details in all cases: compound 10.0 µM
# ACVR2A (human) = ACVR2A (human) (UniProt P27037)
# ADCK4 (human) = ADCK4 (human) (UniProt Q96D53)
# ALK (human) = ALK (human) (UniProt Q9UM73)
# AXL (human) = AXL (human) (UniProt P30530)
# BMPR1B (human) = BMPR1B (human) (UniProt O00238)
# CAMK2A (human) = CAMK2A (human) (UniProt Q9UQM7)
# CAMK2B (human) = CAMK2B (human) (UniProt Q13554)
# CDC42BPG (human) = CDC42BPG (human) (UniProt Q6DT37)
# CDK19 (human) = CDK19 (human) (UniProt Q9BWU1)
# CDK7 (human) = CDK7 (human) (UniProt P50613)
# Chain of CDK7 (human) (P50613 whole entry, looked up): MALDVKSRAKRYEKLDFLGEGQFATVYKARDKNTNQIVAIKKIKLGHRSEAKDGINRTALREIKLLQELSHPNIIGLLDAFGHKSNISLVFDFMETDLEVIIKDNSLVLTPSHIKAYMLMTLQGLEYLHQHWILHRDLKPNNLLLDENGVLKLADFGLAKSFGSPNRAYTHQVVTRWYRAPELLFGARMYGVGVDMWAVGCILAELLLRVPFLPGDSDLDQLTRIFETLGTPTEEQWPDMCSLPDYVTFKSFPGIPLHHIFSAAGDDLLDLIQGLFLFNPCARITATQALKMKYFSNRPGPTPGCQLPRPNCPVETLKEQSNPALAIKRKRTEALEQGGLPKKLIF
# CHEK2 (human) = CHEK2 (human) (UniProt O96017)
# CSNK2A2 (human) = CSNK2A2 (human) (UniProt P19784)
# Chain of CSNK2A2 (human) (P19784 whole entry, looked up): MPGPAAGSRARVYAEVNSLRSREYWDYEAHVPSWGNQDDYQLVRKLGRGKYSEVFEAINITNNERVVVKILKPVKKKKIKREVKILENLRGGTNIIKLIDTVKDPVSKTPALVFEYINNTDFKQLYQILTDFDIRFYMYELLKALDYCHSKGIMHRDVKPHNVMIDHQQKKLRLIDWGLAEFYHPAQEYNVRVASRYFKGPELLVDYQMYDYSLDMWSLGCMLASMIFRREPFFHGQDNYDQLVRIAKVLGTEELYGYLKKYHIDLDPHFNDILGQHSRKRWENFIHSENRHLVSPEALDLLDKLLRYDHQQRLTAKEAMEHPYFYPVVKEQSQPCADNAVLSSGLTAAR
# DCLK1 (human) = DCLK1 (human) (UniProt O15075)
# EPHA1 (human) = EPHA1 (human) (UniProt P21709)
# EPHA2 (human) = EPHA2 (human) (UniProt P29317)
# Chain of EPHA2 (human) (P29317 whole entry, looked up): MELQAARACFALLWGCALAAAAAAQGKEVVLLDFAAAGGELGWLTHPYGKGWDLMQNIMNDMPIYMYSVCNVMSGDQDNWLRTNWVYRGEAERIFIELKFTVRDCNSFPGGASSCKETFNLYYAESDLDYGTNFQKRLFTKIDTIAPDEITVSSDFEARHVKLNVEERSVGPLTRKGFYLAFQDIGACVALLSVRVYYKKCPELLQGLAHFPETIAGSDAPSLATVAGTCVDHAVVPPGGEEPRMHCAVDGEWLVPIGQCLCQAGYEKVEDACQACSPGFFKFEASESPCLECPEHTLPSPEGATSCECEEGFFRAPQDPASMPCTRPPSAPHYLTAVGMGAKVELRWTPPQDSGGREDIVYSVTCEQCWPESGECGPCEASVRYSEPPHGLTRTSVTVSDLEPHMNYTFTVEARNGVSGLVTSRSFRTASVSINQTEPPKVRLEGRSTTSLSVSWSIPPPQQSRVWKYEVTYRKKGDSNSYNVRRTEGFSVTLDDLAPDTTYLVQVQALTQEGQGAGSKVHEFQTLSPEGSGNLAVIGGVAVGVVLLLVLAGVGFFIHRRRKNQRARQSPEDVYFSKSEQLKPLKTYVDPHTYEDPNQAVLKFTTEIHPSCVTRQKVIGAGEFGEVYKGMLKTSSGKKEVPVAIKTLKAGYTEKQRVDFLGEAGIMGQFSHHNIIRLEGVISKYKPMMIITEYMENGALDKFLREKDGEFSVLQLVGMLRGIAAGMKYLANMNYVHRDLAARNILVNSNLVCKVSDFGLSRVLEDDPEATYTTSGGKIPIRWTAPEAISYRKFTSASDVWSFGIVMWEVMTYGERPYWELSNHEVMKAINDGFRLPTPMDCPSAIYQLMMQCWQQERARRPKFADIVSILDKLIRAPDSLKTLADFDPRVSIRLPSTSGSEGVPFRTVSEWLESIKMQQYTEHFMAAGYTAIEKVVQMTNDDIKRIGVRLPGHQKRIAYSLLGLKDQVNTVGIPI
# EPHA5 (human) = EPHA5 (human) (UniProt P54756)
# KDR (human) = KDR (human) (UniProt P35968)
# Chain of KDR (human) (P35968 whole entry, looked up): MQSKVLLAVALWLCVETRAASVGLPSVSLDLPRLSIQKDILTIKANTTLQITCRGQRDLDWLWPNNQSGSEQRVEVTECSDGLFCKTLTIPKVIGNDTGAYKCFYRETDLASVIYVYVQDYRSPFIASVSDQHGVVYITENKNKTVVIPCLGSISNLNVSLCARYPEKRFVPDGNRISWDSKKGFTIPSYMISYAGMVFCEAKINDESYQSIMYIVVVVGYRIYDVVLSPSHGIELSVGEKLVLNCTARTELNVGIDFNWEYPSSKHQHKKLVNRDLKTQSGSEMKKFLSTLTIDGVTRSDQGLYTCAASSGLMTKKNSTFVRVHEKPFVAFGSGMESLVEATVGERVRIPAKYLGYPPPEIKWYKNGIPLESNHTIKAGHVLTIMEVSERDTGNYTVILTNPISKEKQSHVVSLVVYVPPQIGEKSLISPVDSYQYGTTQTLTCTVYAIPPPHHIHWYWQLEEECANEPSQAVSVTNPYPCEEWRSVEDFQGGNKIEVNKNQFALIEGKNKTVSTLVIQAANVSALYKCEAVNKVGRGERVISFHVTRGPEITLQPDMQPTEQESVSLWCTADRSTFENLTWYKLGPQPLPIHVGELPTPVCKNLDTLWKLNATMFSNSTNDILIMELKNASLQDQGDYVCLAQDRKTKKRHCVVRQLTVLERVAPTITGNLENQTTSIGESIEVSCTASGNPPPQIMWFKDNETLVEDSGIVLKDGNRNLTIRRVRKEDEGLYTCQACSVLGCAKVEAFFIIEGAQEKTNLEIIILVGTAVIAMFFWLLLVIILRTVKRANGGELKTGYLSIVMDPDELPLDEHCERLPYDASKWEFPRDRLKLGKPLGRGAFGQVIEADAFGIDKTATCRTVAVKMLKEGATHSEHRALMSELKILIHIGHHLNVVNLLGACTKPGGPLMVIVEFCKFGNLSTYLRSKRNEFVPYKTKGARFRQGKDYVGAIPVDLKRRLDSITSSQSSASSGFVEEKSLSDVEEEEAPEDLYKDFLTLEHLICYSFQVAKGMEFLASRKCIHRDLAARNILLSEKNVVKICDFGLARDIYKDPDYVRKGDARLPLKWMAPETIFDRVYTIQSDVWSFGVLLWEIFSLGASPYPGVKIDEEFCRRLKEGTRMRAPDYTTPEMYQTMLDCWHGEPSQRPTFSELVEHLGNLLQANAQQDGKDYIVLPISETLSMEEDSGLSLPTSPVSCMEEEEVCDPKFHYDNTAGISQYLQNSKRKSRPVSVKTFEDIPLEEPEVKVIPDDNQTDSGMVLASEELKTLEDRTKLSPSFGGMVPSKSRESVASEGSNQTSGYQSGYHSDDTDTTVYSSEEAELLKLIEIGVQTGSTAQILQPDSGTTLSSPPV
# MAP2K6 (human) = MAP2K6 (human) (UniProt P52564)
# Chain of MAP2K6 (human) (P52564 whole entry, looked up): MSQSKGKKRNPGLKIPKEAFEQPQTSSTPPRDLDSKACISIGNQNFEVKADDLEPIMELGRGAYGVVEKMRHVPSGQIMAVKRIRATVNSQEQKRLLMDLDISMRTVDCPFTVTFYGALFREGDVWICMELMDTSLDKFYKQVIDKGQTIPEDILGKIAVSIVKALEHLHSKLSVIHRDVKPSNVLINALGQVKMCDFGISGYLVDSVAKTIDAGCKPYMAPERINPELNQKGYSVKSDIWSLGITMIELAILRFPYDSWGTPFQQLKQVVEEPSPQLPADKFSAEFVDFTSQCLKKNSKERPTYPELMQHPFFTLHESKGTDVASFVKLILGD
# MAP4K5 (human) = MAP4K5 (human) (UniProt Q9Y4K4)
# MAPK11 (human) = MAPK11 (human) (UniProt Q15759)
# Chain of MAPK11 (human) (Q15759 whole entry, looked up): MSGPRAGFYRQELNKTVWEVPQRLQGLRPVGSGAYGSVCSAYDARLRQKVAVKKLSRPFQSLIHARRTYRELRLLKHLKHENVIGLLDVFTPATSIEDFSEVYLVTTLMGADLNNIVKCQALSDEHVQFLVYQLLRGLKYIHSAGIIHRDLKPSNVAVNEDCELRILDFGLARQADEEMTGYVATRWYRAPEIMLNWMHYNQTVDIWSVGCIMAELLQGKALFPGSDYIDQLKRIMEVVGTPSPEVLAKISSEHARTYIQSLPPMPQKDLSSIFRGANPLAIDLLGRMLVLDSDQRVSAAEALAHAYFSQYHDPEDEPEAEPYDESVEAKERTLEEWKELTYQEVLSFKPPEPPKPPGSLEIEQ
# MAPK4 (human) = MAPK4 (human) (UniProt P31152)
# MAPK8 (human) = MAPK8 (human) (UniProt P45983)
# PIM1 (human) = PIM1 (human) (UniProt P11309)
# PRKACA (human) = PRKACA (human) (UniProt P17612)
# PTK2B (human) = PTK2B (human) (UniProt Q14289)
# RAF1 (human) = RAF1 (human) (UniProt P04049)
# RPS6KA2 KD1 (human) = RPS6KA2 KD1 (human) (UniProt Q15349)
# Chain of RPS6KA2 KD1 (human) (Q15349 whole entry, looked up): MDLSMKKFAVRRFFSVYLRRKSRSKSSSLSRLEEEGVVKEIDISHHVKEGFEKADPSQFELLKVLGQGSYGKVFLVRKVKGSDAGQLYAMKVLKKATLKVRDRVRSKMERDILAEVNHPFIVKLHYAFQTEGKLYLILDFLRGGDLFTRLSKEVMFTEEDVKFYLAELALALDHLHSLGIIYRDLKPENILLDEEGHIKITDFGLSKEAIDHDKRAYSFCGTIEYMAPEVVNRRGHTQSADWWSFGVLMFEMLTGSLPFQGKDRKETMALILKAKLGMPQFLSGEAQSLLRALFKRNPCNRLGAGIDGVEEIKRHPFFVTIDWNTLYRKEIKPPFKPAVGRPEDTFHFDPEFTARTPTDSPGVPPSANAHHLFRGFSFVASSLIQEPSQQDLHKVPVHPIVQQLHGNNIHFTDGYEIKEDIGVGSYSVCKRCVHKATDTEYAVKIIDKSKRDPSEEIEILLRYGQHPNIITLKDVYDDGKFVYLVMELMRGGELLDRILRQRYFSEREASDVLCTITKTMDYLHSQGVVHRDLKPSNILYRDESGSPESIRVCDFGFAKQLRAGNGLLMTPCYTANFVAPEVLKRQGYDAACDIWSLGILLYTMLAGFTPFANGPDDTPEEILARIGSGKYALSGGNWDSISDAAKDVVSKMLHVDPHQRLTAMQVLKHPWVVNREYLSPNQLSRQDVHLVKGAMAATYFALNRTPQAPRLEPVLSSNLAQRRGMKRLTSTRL
# SRMS (human) = SRMS (human) (UniProt Q9H3Y6)
# SRPK2 (human) = SRPK2 (human) (UniProt P78362)
# STK3 (human) = STK3 (human) (UniProt Q13188)
# SYK (human) = SYK (human) (UniProt P43405)
# TLK1 (human) = TLK1 (human) (UniProt Q9UKI8)
# ULK1 (human) = ULK1 (human) (UniProt O75385)
# WEE1 (human) = WEE1 (human) (UniProt P30291)
# YES1 (human) = YES1 (human) (UniProt P07947)
# Chain of ACVR2A (human) (P27037 whole entry, looked up): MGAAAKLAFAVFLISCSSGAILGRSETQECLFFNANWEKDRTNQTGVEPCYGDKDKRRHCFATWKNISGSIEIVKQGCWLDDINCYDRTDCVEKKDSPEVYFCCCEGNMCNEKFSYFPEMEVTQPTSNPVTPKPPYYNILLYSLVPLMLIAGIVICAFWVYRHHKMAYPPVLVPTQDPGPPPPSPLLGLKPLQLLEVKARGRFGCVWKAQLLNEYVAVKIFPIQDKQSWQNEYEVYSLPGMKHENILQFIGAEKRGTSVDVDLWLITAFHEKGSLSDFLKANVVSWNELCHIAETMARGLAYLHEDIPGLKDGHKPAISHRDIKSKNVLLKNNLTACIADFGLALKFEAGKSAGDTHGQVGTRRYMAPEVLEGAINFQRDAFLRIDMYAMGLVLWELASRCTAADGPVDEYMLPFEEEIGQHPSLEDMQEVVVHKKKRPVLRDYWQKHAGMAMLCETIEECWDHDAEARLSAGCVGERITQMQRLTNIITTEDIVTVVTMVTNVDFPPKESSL
SMILES,"kinase still bound, per cent of control (ACVR2A (human))","kinase still bound, per cent of control (ADCK4 (human))","kinase still bound, per cent of control (ALK (human))","kinase still bound, per cent of control (AXL (human))","kinase still bound, per cent of control (BMPR1B (human))","kinase still bound, per cent of control (CAMK2A (human))","kinase still bound, per cent of control (CAMK2B (human))","kinase still bound, per cent of control (CDC42BPG (human))","kinase still bound, per cent of control (CDK19 (human))","kinase still bound, per cent of control (CDK7 (human))","kinase still bound, per cent of control (CSNK2A2 (human))","kinase still bound, per cent of control (DCLK1 (human))","kinase still bound, per cent of control (EPHA1 (human))","kinase still bound, per cent of control (EPHA2 (human))","kinase still bound, per cent of control (EPHA5 (human))","kinase still bound, per cent of control (KDR (human))","kinase still bound, per cent of control (MAP2K6 (human))","kinase still bound, per cent of control (MAP4K5 (human))","kinase still bound, per cent of control (MAPK11 (human))","kinase still bound, per cent of control (MAPK4 (human))",other results
COc1cc(C)c(Sc2cnc(NC(=O)c3ccc(CNC(C)C(C)C)cc3)s2)cc1C(=O)N1CCN(C(C)=O)CC1 (stereo not drawn),100%,100%,4.6%,4%,100%,100%,100%,100%,100%,1.4%,100%,31%,100%,25%,100%,100%,100%,100%,100%,100%,"kinase still bound, per cent of control (CHEK2 (human)): 100%; kinase still bound, per cent of control (MAPK8 (human)): 100%; kinase still bound, per cent of control (PIM1 (human)): 100%; kinase still bound, per cent of control (PRKACA (human)): 100%; kinase still bound, per cent of control (PTK2B (human)): 100%; kinase still bound, per cent of control (RAF1 (human)): 100%; kinase still bound, per cent of control (RPS6KA2 KD1 (human)): 100%; kinase still bound, per cent of control (SRMS (human)): 100%; kinase still bound, per cent of control (SRPK2 (human)): 100%; kinase still bound, per cent of control (STK3 (human)): 100%; kinase still bound, per cent of control (SYK (human)): 100%; kinase still bound, per cent of control (TLK1 (human)): 100%; kinase still bound, per cent of control (ULK1 (human)): 25%; kinase still bound, per cent of control (WEE1 (human)): 100%; kinase still bound, per cent of control (YES1 (human)): 12%"
COc1ccc(N(C(=O)Oc2cc(C(=O)Nc3cccc(C(F)(F)F)c3)ccc2C)c2ccnc(Nc3ccc(N4CCN(C)CC4)cc3)n2)c(OC)c1,100%,100%,10%,100%,100%,100%,100%,100%,100%,100%,100%,100%,0.75%,4.2%,0.85%,4.5%,100%,1.6%,1.9%,100%,"kinase still bound, per cent of control (MAPK8 (human)): 100%; kinase still bound, per cent of control (PIM1 (human)): 100%; kinase still bound, per cent of control (PRKACA (human)): 33%; kinase still bound, per cent of control (PTK2B (human)): 0.9%; kinase still bound, per cent of control (RAF1 (human)): 23%; kinase still bound, per cent of control (RPS6KA2 KD1 (human)): 100%; kinase still bound, per cent of control (SRMS (human)): 0%; kinase still bound, per cent of control (SRPK2 (human)): 100%; kinase still bound, per cent of control (STK3 (human)): 100%; kinase still bound, per cent of control (SYK (human)): 4%; kinase still bound, per cent of control (TLK1 (human)): 100%; kinase still bound, per cent of control (WEE1 (human)): 100%; kinase still bound, per cent of control (YES1 (human)): 0.45%"
COc1cc(N2CCC(C(N)=O)CC2)ccc1Nc1nc(N)c(Cl)c(Nc2ccccc2S(=O)(=O)C(C)C)n1,100%,0%,4.5%,8.6%,100%,32%,100%,100%,100%,100%,100%,18%,15%,100%,100%,100%,100%,100%,100%,100%,"kinase still bound, per cent of control (CHEK2 (human)): 14%; kinase still bound, per cent of control (MAPK8 (human)): 4.1%; kinase still bound, per cent of control (PIM1 (human)): 100%; kinase still bound, per cent of control (PRKACA (human)): 100%; kinase still bound, per cent of control (PTK2B (human)): 0.15%; kinase still bound, per cent of control (RAF1 (human)): 100%; kinase still bound, per cent of control (RPS6KA2 KD1 (human)): 100%; kinase still bound, per cent of control (SRMS (human)): 7.3%; kinase still bound, per cent of control (SRPK2 (human)): 100%; kinase still bound, per cent of control (STK3 (human)): 100%; kinase still bound, per cent of control (SYK (human)): 100%; kinase still bound, per cent of control (TLK1 (human)): 100%; kinase still bound, per cent of control (ULK1 (human)): 100%; kinase still bound, per cent of control (WEE1 (human)): 100%; kinase still bound, per cent of control (YES1 (human)): 100%"
